From patent US8518958B2, “Pyrido [2,3-D] pyrimidines and their use as kinase inhibitors” (Forma Therapeutics, Inc., priority 2006, dated 2013)

Experiments:
[1] = target: C-Raf Raf-1 (truncated), active (Homo sapiens, UniProt P04049, Y340D/Y341D); test: C-Raf kinase inhibition (MAPH assay / IMAP assay); details: read-out: Biochemical IC50 C-Raf
From the text: We characterized the in vitro inhibitory activity against protein kinases of compounds of the present invention by determining their IC50 values (see Table 2).
Kinase: C-Raf Raf-1 (truncated), active (Upstate; cat. no. 14-352)
Reaction Temperature: room temperature
Assay Plate: 96 well U bottom plate (Greiner, 650161)
MultiScreen-PH Plate: 96 well MAPH Filter Plates (Millipore, MAPHNOB50)
Filter Washing Solution: 0.75% H3PO4
Scintillation Liquid: Supermix Liquid Scintillator (PerkinElmer, 1200-439)
Negative Control (C−): 100 mM EDTA, no inhibitor
Positive Control (C+): no inhibitor
Reaction Buffer (Final Concentration):
Final Assay Concentrations:
Kinase: Use kinase conc. yielding 10% ATP turnover as determined in titration experiment.
Adenosine 5′-[γ-^33P]triphosphate: 12.5 μCi/ml (Amersham Biosciences, BF1000)
Substrate: Myelin Basic Protein 57.8 μM (Invitrogen, 13228-010)
Pipetting Sequence: • 1) Add 10 μl 4-fold concentrated substrate+4-fold concentrated ATP in 3-fold concentrated reaction buffer to each well of assay plate • 2) Add 10 μl […] concentrated inhibitor in 4% DMSO in H2O to each well except to C− and C+ wells (starting point: final inhibitor concentration 10 μM; IC50 determination based on dilution series) • 3) Add 10 μl 4% DMSO in H2O to C− and C+ wells • 4) Add 10 μl 500 mM EDTA in H2O to C− wells • 5) Add 10 μl 50 μCi/ml adenosine 5′-[γ-^33P]triphosphate in H2O to each well • 6) Add 10 μl […] concentrated kinase in Reaction Buffer to each well • 7) Incubate 1 hr at room temperature • 8) Add 10 μl 50 mM EDTA in H2O to each well except to C− wells • 9) Prepare MAPH plates by adding 200 μl 0.75% H3PO4 to each well • 10) Exhaust 0.75% H3PO4 using Millipore vacuum station • 11) Add 60 μl 0.75% H3PO4 to each well of MAPH filter plate • 12) Transfer 30 μl sample per well from assay plate to corresponding well of MAPH filter plate • 13) Incubate 30 min at room temperature • 14) Wash each well of MAPH filter plates 3× with 200 μl 0.75% H3PO4 using Millipore vacuum station • 15) Add 20 μl scintillation liquid to each well of MAPH filter plate • 16) Seal MAPH filter plate • 17) Store MAPH filter plate 30 min in darkness • 18) Quantify radioactivity using scintillation counter (MicroBeta, Perkin-Elmer)
Reaction Volume: 8.0108 μl
IMAP Incubation Time: 60 min
Assay Plate: 384 well U bottom, PP, black, low volume (Corning, 3676)
Compound Plate: 384 well U bottom, PS (Falcon, 3995)
IMAP Binding Buffer A: Molecular Devices, R7282
IMAP Binding Buffer B: Molecular Devices, R7283
IMAP Binding Reagent: Molecular Devices, R7207
Negative Control (C−): no kinase, no inhibitor
Reation buffer: 20 mM Hepes, pH 7.5 • 1 mM DTT • 10 mM MnCl2 • 0.01% Brij35
Kinase: Kinase conc. yielding 50% substrate turnover as determined in titration experiment • c-Raf (Upstate 14-352)
Substrate: 5F1-SGQLIDSMANSFV-NH2 400 nM (jpt Peptide Technologies GmbH, Berlin, Germany)
IMAP Binding Solution: 75% IMAP Binding Buffer A • 25% IMAP Binding Buffer B • IMAP Binding Reagent 1:800
Pipetting Sequence: • 1) Add 6 μl 1.33-fold concentrated substrate+1.33-fold concentrated ATP in 1-fold concentrated reaction buffer to each well of assay plate • 2) Add 10.8 nl 740-fold concentrated inhibitor in 100% DMSO to each well except to C− and C+ wells using pintool (CyBio, Jena, Germany) (starting point: final inhibitor concentration 10 μM; IC50 determination based on dilution series) • 3) Add 10.8 nl 100% DMSO to C− and C+ wells using pintool • 4) Add 2 μl reaction buffer to C− wells • 5) Add 2 μl 4-fold concentrated kinase in reaction buffer to each well except C− wells • 6) Incubate according to reaction time at room temperature • 7) Add 15 μl IMAP binding solution to each well • 8) Incubate according to IMAP incubation time at room temperature • 9) Measure fluorescence polarization (Analyst GT, Molecular Devices)

[2] = tested on: HT-29 tumor cells; test: Anti-proliferative activity, SRB assay; format: cell-based, human; details: Homo sapiens, HT-29, 72 h, 72 hours exposure, read-out: CELLULAR IC50 HT-29
Summary of the method: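 IC50 derived from % inhibition relative to DMSO controls, measured by sulforhodamine B binding (OD570) after TCA fixation. Cells (3,000-15,000 per well) were seeded a day ahead, then treated with graded compound concentrations for 72 hours.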

[3] = target: B-Raf delta1-415 (Homo sapiens, UniProt P15056); test: B-Raf kinase inhibition (MAPH filter plate, 33P-ATP, MEK1 substrate); details: read-out: Biochemical IC50 B-Raf
Sequence of B-Raf delta1-415 (P15056 416-766): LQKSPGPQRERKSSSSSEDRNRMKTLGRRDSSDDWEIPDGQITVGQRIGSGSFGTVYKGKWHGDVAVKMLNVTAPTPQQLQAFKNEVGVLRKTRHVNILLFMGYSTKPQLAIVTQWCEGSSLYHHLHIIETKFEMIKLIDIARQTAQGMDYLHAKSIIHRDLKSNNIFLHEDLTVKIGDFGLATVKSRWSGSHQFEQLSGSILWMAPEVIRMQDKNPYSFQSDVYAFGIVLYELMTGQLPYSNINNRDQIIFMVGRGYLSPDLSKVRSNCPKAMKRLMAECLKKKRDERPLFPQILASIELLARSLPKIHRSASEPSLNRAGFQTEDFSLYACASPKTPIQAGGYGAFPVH
Summary of the method: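 IC50 values come from dilution series (top 10 μM) measured by scintillation counting of 33P-labelled MEK1 retained on H3PO4-washed filters. Reactions ran 1 h at room temperature in pH 7.0 Mops buffer with MgCl2, MnCl2 and DTT, using 12.5 μCi/ml [γ-33P]ATP and B-Raf delta1-415 titrated to 50% turnover.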

Sequence of C-Raf Raf-1 (truncated), active (P04049 306-648 Y340D/Y341D): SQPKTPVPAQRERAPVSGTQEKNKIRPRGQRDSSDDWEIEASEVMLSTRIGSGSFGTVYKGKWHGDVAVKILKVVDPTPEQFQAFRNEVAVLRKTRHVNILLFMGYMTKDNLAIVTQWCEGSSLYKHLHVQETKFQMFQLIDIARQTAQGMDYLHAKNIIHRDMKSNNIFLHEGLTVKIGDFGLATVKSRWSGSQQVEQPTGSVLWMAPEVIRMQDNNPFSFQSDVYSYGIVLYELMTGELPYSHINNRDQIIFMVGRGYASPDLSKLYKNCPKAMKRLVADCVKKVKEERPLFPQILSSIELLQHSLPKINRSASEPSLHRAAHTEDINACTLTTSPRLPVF

| IC50 [1] | IC50 [2] | IC50 [3] | Structure (SMILES) |
| --- | --- | --- | --- |
| < 100 nM | < 1000 nM |  | COn1c(=O)c(-c2c(C)cccc2C)cc2cnc(Nc3cccc(S(N)(=O)=O)c3)nc21 [Compound 72, 6-(2,6-Dimethylphenyl)-8-methoxy-2-(3-sulfamoylphenylamino)-pyrido[2,3-d]pyrimidin-7-one] |
| < 500 nM | < 1000 nM | < 500 nM | NCCOCCOn1c(=O)c(-c2c(Cl)cccc2Cl)cc2cnc(Nc3ccccc3)nc21 [Compound 58, 8-(2-(2-Aminoethyloxy)ethyl)oxy-6-(2,6-dichlorophenyl)-2-phenylamino-pyrido[2,3-d]pyrimidin-7-one] |
| < 500 nM | < 10000 nM | < 500 nM | COn1c(=O)c(-c2ccc(Cl)c(Cl)c2)cc2cnc(Nc3cccc(S(N)(=O)=O)c3)nc21 [Compound 64, 2-(3-Aminosulfonlyphenyl)-amino-6-(3,4-dichlorophenyl)-8-methoxy-pyrido[2,3-d]pyrimidin-7-one] |
| < 100 nM | < 1000 nM | < 500 nM | NCCCCCOn1c(=O)c(-c2c(Cl)cccc2Cl)cc2cnc(Nc3ccccc3)nc21 [Compound 56, 8-(5-Aminopentyl)oxy-6-(2,6-dichlorophenyl)-2-phenylamino-pyrido[2,3-d]pyrimidin-7-one] |
| < 100 nM | < 1000 nM | < 1000 nM | CC(=O)NCCCOn1c(=O)c(-c2c(Cl)cccc2Cl)cc2cnc(Nc3ccccc3)nc21 [Compound 57, 8-(3-Acetylaminopropyl)oxy-6-(2,6-dichlorophenyl)-2-phenylamino-pyrido[2,3-d]pyrimidin-7-one] |
| < 100 nM | < 1000 nM | < 100 nM | COn1c(=O)c(-c2c(Cl)cccc2Cl)cc2cnc(Nc3cccc(CO)c3)nc21 [Compound 1, 6-(2,6-Dichlorophenyl)-2-(3-hydroxymethylphenylamino)-8-methoxy-pyrido[2,3-d]pyrimidin-7-one] |
| < 100 nM | < 1000 nM | < 500 nM | COc1cccc(Nc2ncc3cc(-c4c(C)cccc4C)c(=O)n(OC)c3n2)c1 [Compound 69, 6-(2,6-Dimethylphenyl)-8-methoxy-2-(3-methoxyphenyl)-amino-pyrido[2,3-d]pyrimidin-7-one] |
| < 100 nM | < 10000 nM | > 1000 nM | COn1c(=O)c(-c2cc(NC(=O)C(C)C)ccc2Cl)cc2cnc(Nc3ccccc3)nc21 [Compound 32] |
| < 100 nM | < 1000 nM | < 100 nM | COn1c(=O)c(-c2c(F)cccc2Cl)cc2cnc(Nc3ccc(N4CCN(C)CC4)cc3)nc21 [Compound 25, 6-(2-Chloro-6-fluorophenyl)-8-methoxy-2-(4-(4-methylpiperazino)-phenylamino)-pyrido[2,3-d]pyrimidin-7-one] |
| < 500 nM | < 1000 nM | < 500 nM | COn1c(=O)c(-c2ccc(Cl)cc2Cl)cc2cnc(Nc3ccc(OCCN(C)C)cc3)nc21 [Compound 16, 6-(2,4-Dichlorophenyl)-8-methoxy-2-(4-(2-dimethylaminoethoxy)-phenylamino)-pyrido[2,3-d]pyrimidin-7-one] |
| < 500 nM | < 1000 nM | < 100 nM | CNCCOn1c(=O)c(-c2c(Cl)cccc2Cl)cc2cnc(Nc3cccc(OC)c3)nc21 [Compound 74, 6-(2,6-Dichlorophenyl)-8-(2-methylaminoethyl)oxy-2-(3-methoxyphenyl)amino-pyrido[2,3-d]pyrimidin-7-one] |
| < 100 nM | < 1000 nM | < 1000 nM | COc1cccc(Nc2ncc3cc(-c4ccccc4Cl)c(=O)n(OC)c3n2)c1 [Compound 7, 6-(2-Chlorophenyl)-8-methoxy-2-(3-methoxyphenylamino)-pyrido[2,3-d]pyrimidin-7-one] |
| < 100 nM | < 1000 nM | < 100 nM | COc1cccc(Nc2ncc3cc(-c4c(Cl)cccc4Cl)c(=O)n(OC)c3n2)c1 [Compound 3, 6-(2,6-Dichlorophenyl)-8-methoxy-2-(3-methoxyphenylamino)-pyrido[2,3-d]pyrimidin-7-one] |
| < 100 nM | < 10000 nM | < 10000 nM | COn1c(=O)c(-c2cccc(NC(C)=O)c2)cc2cnc(Nc3ccccc3)nc21 [Compound 62] |
| < 100 nM | < 10000 nM | > 1000 nM | COn1c(=O)c(-c2cc(NC(=O)c3cccc(Cl)c3)ccc2Cl)cc2cnc(Nc3ccccc3)nc21 [Compound 36] |
| < 500 nM | < 10000 nM | < 10000 nM | COc1ccc(OC)c(-c2cc3cnc(Nc4ccccc4)nc3n(OC)c2=O)c1 [Compound 60] |
| < 100 nM | < 1000 nM | < 100 nM | COn1c(=O)c(-c2c(Cl)cccc2Cl)cc2cnc(Nc3cc(C(=O)NCCN(C)C)n(C)c3)nc21 [Compound 67, 6-(2,6-Dichlorophenyl)-2-(5-(2-dimethylaminoethyl)aminocarbonyl-1-methyl-pyrrol-3-yl)-amino-8-methoxy-pyrido[2,3-d]pyrimidin-7-one] |
| < 100 nM | < 1000 nM | < 100 nM | COn1c(=O)c(-c2c(F)cccc2Cl)cc2cnc(Nc3cccc(S(N)(=O)=O)c3)nc21 [Compound 30, 6-(2-Chloro-6-fluorophenyl)-8-methoxy-2-(3-sulfamoylphenylamino)-pyrido[2,3-d]pyrimidin-7-one] |
| < 1000 nM | < 10000 nM | < 1000 nM | COn1c(=O)c(-c2ccc(Cl)c(Cl)c2)cc2cnc(Nc3ccc(N4CCN(C)CC4)cc3)nc21 [Compound 18, 6-(3,4-Dichlorophenyl)-8-methoxy-2-(4-(4-methylpiperazino)-phenylamino)-pyrido[2,3-d]pyrimidin-7-one] |
| < 100 nM | < 1000 nM | < 100 nM | CN1CCN(c2ccc(Nc3ncc4cc(-c5c(F)cccc5Cl)c(=O)n(OCC5CC5)c4n3)cc2)CC1 [Compound 52, 6-(2-Chloro-6-fluorophenyl)-8-cyclopropylmethoxy-2-(4-(4-methylpiperazino)-phenylamino)-pyrido[2,3-d]pyrimidin-7-one] |
| < 100 nM | < 1000 nM | < 100 nM | COn1c(=O)c(-c2c(Cl)cccc2Cl)cc2cnc(Nc3ccc(OCCN(C)C)cc3)nc21 [Compound 24, 6-(2,6-Dichlorophenyl)-8-methoxy-2-(4-(2-dimethylaminoethoxy)-phenylamino)-pyrido[2,3-d]pyrimidin-7-one] |
